From patent publication US6756375B2, “10-Aryl-11h-benzo[b]fluorene derivatives and analogs for medicinal use” (Akzo Nobel N.V., priority 2000, dated 2004)

Target: human estrogen receptor β (hERβ) (Homo sapiens, UniProt Q92731)
Assay: Antiestrogenic activity in the in vitro bioassay: recombinant CHO cells co-transfected with hERβ, rat oxytocin promoter and luciferase reporter gene
Type: cell-based
Details: potency ratio relative to standard ICI 164.384; inhibition of estradiol-induced luciferase transactivation via hERβ in CHO cells
Method: The estrogenic and antiestrogenic activity of compounds is determined in an in vitro bioassay with recombinant Chinese hamster ovary (CHO) cells stably co-transfected with the human estrogen receptor α (hERα) or β receptor (hERβ), the rat oxytocin promoter (RO) and the luciferase reporter gene (LUC). The estrogenic activity (potency ratio) of a test compound to stimulate the transactivation of the enzyme luciferase mediated via the estrogen receptors hERα or hERβ is compared with the standard estrogen estradiol. The antiestrogenic activity (potency ratio) of a test compound to inhibit the transactivation of the enzyme luciferase mediated via the estrogen receptors hERα or hERβ by the estrogen estradiol is compared with the standard ICI 164.384 (=(7α,17β)-N-butyl-3,17-dihydroxy-N-methylestra-1,3,5(10)-triene-7-undecanamide).

Sequence of human estrogen receptor β (hERβ) (Q92731 whole entry): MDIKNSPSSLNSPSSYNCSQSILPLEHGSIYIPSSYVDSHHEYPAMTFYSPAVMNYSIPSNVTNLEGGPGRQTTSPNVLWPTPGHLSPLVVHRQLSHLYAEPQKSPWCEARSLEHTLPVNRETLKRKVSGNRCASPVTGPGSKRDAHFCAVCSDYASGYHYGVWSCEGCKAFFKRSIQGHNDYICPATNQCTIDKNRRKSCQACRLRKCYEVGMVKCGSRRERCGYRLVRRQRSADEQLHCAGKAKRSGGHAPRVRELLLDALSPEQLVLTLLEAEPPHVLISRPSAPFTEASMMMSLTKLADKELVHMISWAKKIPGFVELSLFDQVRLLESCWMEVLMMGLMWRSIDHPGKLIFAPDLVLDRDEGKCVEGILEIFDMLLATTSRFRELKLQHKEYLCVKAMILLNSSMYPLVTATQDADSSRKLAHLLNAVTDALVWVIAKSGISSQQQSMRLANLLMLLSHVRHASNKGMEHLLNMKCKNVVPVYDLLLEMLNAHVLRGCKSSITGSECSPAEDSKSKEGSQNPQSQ

With `Oc1ccc2c(c1)Cc1c-2cc2ccc(O)cc2c1-c1ccc(Cl)cc1` [Compound 5a] the ERβ antagonism was “+ (5 > 5% (relative to ICI): +)”.

For `Oc1ccc2c(c1)Cc1c-2cc2ccc(O)cc2c1-c1ccc2ccccc2c1` [Compound 5b], the ERβ antagonism was “+ (5 > 5% (relative to ICI): +)”.

`COc1cccc(-c2c3c(cc4ccc(O)cc24)-c2ccc(O)cc2C3)c1` [Compound 5c] was tested, and the ERβ antagonism was “+ (5 > 5% (relative to ICI): +)”.

`Oc1ccc2c(c1)Cc1c-2cc2ccc(O)cc2c1-c1cccc(C(F)(F)F)c1` [Compound 5d] was tested, and the ERβ antagonism was “+ (5 > 5% (relative to ICI): +)”.

With `Cc1ccc(-c2c3c(cc4ccc(O)cc24)-c2ccc(O)cc2C3)cc1` [Compound 5e] the ERβ antagonism was “++ (> 40%: ++)”.

`Oc1ccc2c(c1)Cc1c-2cc2ccc(O)cc2c1-c1ccc(F)c(Cl)c1` [Compound 5f] was tested, and the ERβ antagonism was “+ (5 > 5% (relative to ICI): +)”.

With `Oc1ccc2c(c1)Cc1c-2cc2ccc(O)cc2c1-c1ccc2c(c1)OCO2` [Compound 5g] the ERβ antagonism was “+ (5 > 5% (relative to ICI): +)”.

With `Oc1ccc2c(c1)Cc1c-2cc2ccc(O)cc2c1-c1ccc(-c2ccccc2)cc1` [Compound 5h] the ERβ antagonism was “+ (5 > 5% (relative to ICI): +)”.

For `Oc1ccc2c(c1)Cc1c-2cc2ccc(O)cc2c1-c1cccc(F)c1` [Compound 5j], the ERβ antagonism was “+ (5 > 5% (relative to ICI): +)”.

For `COc1ccc(-c2c3c(cc4ccc(O)cc24)-c2ccc(O)cc2C3)cc1` [Compound 5k], the ERβ antagonism was “+ (5 > 5% (relative to ICI): +)”.

With `Oc1ccc2c(c1)Cc1c-2cc2ccc(O)cc2c1-c1ccc(F)cc1` [Compound 5l] the ERβ antagonism was “++ (> 40%: ++)”.

`Oc1ccc2c(c1)Cc1c-2cc2ccc(O)cc2c1-c1ccc(Cl)c(Cl)c1` [Compound 5m] was tested, and the ERβ antagonism was “++ (> 40%: ++)”.

For `Oc1ccc2c(c1)Cc1c-2cc2ccc(O)cc2c1-c1cccc(Cl)c1` [Compound 5n], the ERβ antagonism was “+ (5 > 5% (relative to ICI): +)”.

For `Oc1ccc2c(c1)Cc1c-2cc2ccc(O)cc2c1-c1ccc(C(F)(F)F)cc1` [Compound 5o], the ERβ antagonism was “+ (5 > 5% (relative to ICI): +)”.

With `Cc1cccc(-c2c3c(cc4ccc(O)cc24)-c2ccc(O)cc2C3)c1` [Compound 5p] the ERβ antagonism was “+ (5 > 5% (relative to ICI): +)”.

`CC(C)c1cccc(-c2c3c(cc4ccc(O)cc24)-c2ccc(O)cc2C3)c1` [Compound 5q] was tested, and the ERβ antagonism was “+ (5 > 5% (relative to ICI): +)”.

`Oc1ccc2c(c1)Cc1c-2cc2ccc(O)cc2c1-c1ccc(OC(F)(F)F)cc1` [Compound 5r] was tested, and the ERβ antagonism was “++ (> 40%: ++)”.

For `Oc1ccc2c(c1)Cc1c-2cc2ccc(O)cc2c1-c1ccc(-c2ccccc2)c(F)c1` [Compound 5s], the ERβ antagonism was “+ (5 > 5% (relative to ICI): +)”.

For `Oc1ccc2c(c1)Cc1c-2cc2ccc(O)cc2c1-c1ccccc1C(F)(F)F` [Compound 5u], the ERβ antagonism was “++ (> 40%: ++)”.

In the case of `Oc1ccc2c(c1)Cc1c-2cc2ccc(O)cc2c1-c1ccccc1` [Compound 5v], the ERβ antagonism is reported as “+ (5 > 5% (relative to ICI): +)”.

In the case of `Oc1ccc2c(c1)Cc1c-2cc2ccc(O)cc2c1-c1ccc(OCCN2CCCCC2)cc1` [Compound 9], the ERβ antagonism is reported as “++ (> 40%: ++)”.
